Data from patent publication US20100190768A1, “NOVEL FUSED PYROLE DERIVATIVE” (Dainippon Sumitomo Pharma Co., Ltd., priority 2005, published 2010).

How the values were obtained:
[1] = tested on: H4-III-E cells; test: TAT (tyrosine aminotransferase) assay; format: cell-based; details: for Antagonistic activity of 10 μM test compound: 10 μM test compound together with 0.005 μM dexamethasone, inhibitory ratio against TAT activity increase by Dex
Method in brief: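 Rat hepatoma H4-III-E cells were treated overnight with compound, either alone for agonism or together with 0.005 μM dexamethasone for antagonism. TAT activity in lysates was read at 331 nm after reaction at 37 °C. Activity was expressed as % of the dexamethasone response, or as % inhibition of the dexamethasone-induced increase, and scored at a 10% cutoff.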

[2] = molecular target: T1, human GRα protein (Homo sapiens, UniProt P04150); test: Binding inhibitory assay (displacement of 3H-dexamethasone from the cytoplasm fraction of baculovirus-infected insect cells); details: 100 nM test compound; 3H-Dex; NSB with 10 μM dexamethasone; read-out: Binding Inhibitory ratio (%) of 100 nM of test compound
T1 construct: made in house; host or cells: insect cells infected with baculovirus; cytoplasm fraction used
T1 sequence (P04150 1-777): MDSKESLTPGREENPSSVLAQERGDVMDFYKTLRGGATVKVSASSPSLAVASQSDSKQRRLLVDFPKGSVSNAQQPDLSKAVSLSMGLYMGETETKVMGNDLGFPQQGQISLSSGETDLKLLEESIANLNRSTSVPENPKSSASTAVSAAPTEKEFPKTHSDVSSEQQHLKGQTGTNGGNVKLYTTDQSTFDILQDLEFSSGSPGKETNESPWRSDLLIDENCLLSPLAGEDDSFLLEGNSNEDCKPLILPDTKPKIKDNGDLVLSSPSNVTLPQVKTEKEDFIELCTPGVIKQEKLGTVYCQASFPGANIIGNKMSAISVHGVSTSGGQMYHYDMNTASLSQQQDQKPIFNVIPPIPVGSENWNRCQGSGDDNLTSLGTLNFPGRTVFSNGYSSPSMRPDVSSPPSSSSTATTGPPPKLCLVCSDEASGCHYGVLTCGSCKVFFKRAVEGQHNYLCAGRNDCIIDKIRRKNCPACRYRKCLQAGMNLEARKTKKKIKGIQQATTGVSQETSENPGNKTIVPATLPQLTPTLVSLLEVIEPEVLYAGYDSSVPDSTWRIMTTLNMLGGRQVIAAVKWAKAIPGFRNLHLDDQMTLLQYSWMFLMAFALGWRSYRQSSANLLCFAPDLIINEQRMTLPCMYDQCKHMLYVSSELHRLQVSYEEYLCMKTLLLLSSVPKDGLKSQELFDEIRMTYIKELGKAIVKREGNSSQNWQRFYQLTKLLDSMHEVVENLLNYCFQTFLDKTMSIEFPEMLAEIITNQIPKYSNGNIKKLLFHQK
Method in brief: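 Cytosol from baculovirus-infected insect cells expressing human GRα incubated with compound and 10 nM ³H-dexamethasone solution in Tris/EDTA/glycerol/DTT/molybdate buffer, pH 7.6, 1% DMSO, 16–20 h at 4 °C. Free ligand removed with dextran-coated charcoal, supernatant counted; NSB from 10 μM dexamethasone, inhibition % vs DMSO, duplicates.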

[3] = 10 μM test compound alone, relative to maximum Dex-induced TAT activity (100%)

inhibition at 0.1 µM [2] [%] | Compound | Agonistic activity of 10 μM test compound [1, 3] | Antagonistic activity of 10 μM test compound [1] | activation at 10 µM ([1]; 10 μM test compound alone, relative to maximum Dex-induced TAT activity (100%), read-out: Agonistic activity of 10 μM test compound) [%]
94 | CN1CCCN(C(=O)c2ccc(OC3CCN(CC(O)(c4cn(Cc5ccccc5)c5cc([N+](=O)[O-])ccc45)C(F)(F)F)CC3)cc2)CC1 (stereo not drawn) [Example 203, 2-(1-Benzyl-6-nitro-1H-indol-3-yl)-1,1,1-trifluoro-3-(4-{4-[(4-methyl-1,4-diazepan-1-yl)carbonyl]phenoxy}piperidin-1-yl)propan-2-ol] | ◯ | ◯ | 
96 | COc1ccc(Cn2cc(C(O)(CN3CCC(Oc4ccc(CC(=O)O)cc4OC)CC3)C(F)(F)F)c3ccc(C#N)cc32)cc1 (stereo not drawn) [Example 226, {4-[(1-{2-[6-Cyano-1-(4-methoxybenzyl)-1H-indol-3-yl]-3,3,3-trifluoro-2-hydroxypropyl}piperidin-4-yl)oxy]-3-methoxyphenyl}acetic acid] | ◯ | ◯ | 
79 | COc1cc(CC(=O)O)ccc1OC1CCN(CC(O)(c2cn(Cc3ccncc3)c3cc(C#N)ccc23)C(F)(F)F)CC1 (stereo not drawn) [Example 235, {4-[(1-{2-[6-Cyano-1-(pyridin-4-ylmethyl)-1H-indol-3-yl]-3,3,3-trifluoro-2-hydroxypropyl}piperidin-4-yl)oxy]-3-methoxyphenyl}acetic acid] |  | ◯ | < 10
